Data reported in US20240299386A1, “Novel imidazole derivatives having protein kinase inhibitory activity and uses thereof” (INDUSTRY-UNIVERSITY COOPERATION FOUNDATION HANYANG …, priority 2021, published 2024).
pIC50: −log10 of the molar value.

biological target: JNK3 (Homo sapiens, UniProt P53779); test: Measurement of JNK3 enzyme activity; format: biochemical; settings: Table 1
Description: Experimental Example 1. Measurement of JNK3 Enzyme Activity

JNK3, sequence (P53779 whole entry, species assumed): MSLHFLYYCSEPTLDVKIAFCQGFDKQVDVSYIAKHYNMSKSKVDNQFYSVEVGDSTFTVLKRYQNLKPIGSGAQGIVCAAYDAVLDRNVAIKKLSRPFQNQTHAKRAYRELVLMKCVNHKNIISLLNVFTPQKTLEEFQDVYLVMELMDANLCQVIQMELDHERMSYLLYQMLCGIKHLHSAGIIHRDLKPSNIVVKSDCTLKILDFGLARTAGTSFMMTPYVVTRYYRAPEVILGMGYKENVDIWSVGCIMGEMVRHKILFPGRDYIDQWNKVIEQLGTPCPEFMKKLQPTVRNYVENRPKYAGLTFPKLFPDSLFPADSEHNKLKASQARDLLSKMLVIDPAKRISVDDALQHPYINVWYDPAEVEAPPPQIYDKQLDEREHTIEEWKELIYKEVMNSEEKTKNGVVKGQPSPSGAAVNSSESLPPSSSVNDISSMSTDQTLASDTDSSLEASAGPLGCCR

| SMILES | pIC50 |
| --- | --- |
| CCOC(=O)C1Cc2nc(-c3ccc(F)c(C(F)(F)F)c3)n(-c3ccnc(N[C@H]4CCN(C(=O)C5CC5)C4)n3)c2C1 (stereo partly drawn) [Compound 16a, ethyl 1-(2-(((S)-1-(cyclopropanecarbonyl)pyrrolidine-3-yl)amino)pyrimidin-4-yl)-2-(4-fluoro-3-(trifluoromethyl)phenyl)-1,4,5,6-tetracyclopenta[d]imidazol-5-carboxylate] | < 6.00 |
| NC(=O)C1Cc2nc(-c3ccc(F)c(C(F)(F)F)c3)n(-c3ccnc(N[C@H]4CCN(C(=O)C5CC5)C4)n3)c2C1 (stereo partly drawn) [Compound 20a, 1-(2-(((S)-1-(cyclopropanecarbonyl)pyrrolidine-3-yl)amino)pyrimidin-4-yl)-2-(4-fluoro-3-(trifluoromethyl)phenyl)-1,4,5,6-tetracyclopenta[d]imidazol-5-carboxamide] | < 6.00 |
| CNC(=O)C1Cc2nc(-c3ccc(F)c(C(F)(F)F)c3)n(-c3ccnc(NC4CCCN(C(=O)C5CC5)C4)n3)c2C1 (single isomer, unassigned) [Compound 26a] | > 7.52 |
| CNC(=O)C1Cc2nc(-c3ccc(F)c(C(F)(F)F)c3)n(-c3ccnc(N[C@H]4CCN(C(=O)C5CC5)C4)n3)c2C1 (stereo partly drawn) [Compound 24a, 1-(2-(((S)-1-(cyclopropanecarbonyl)pyrrolidine-3-yl)amino)pyrimidin-4-yl)-2-(4-fluoro-3-(trifluoromethyl)phenyl)-N-methyl-1,4,5,6-tetracyclopenta[d]imidazol-5-carboxamide] | < 6.00 |

same assay, conditions: Table 2

| SMILES | pIC50 |
| --- | --- |
| NC(=O)C1Cc2nc(-c3ccc(Cl)c(Cl)c3)n(-c3ccnc(N[C@@H]4CCCN(C(=O)C5CC5)C4)n3)c2C1 (stereo partly drawn) [Compound 23b, 1-(2-(((R)-1-(cyclopropanecarbonyl)piperidin-3-yl)amino)pyrimidin-4-yl)-2-(3,4-dichlorophenyl)-1,4,5,6-tetracyclopenta[d]imidazol-5-carboxamide] | > 7.52 |
| CCOC(=O)C1Cc2nc(-c3ccc(Cl)c(Cl)c3)n(-c3ccnc(N[C@H]4CCCN(C(=O)C5CC5)C4)n3)c2C1 (stereo partly drawn) [Compound 18b, ethyl 1-(2-(((S)-1-(cyclopropanecarbonyl)piperidin-3-yl)amino)pyrimidin-4-yl)-2-(3,4-dichlorophenyl)-1,4,5,6-tetracyclopenta[d]imidazol-5-carboxylate] | > 7.52 |
| CCOC(=O)C1Cc2nc(-c3ccc(Cl)c(Cl)c3)n(-c3ccnc(N[C@H]4CCN(C(=O)C5CC5)C4)n3)c2C1 (stereo partly drawn) [Compound 16b, ethyl 1-(2-(((S)-1-(cyclopropanecarbonyl)pyrrolidine-3-yl)amino)pyrimidin-4-yl)-2-(3,4-dichlorophenyl)-1,4,5,6-tetracyclopenta[d]imidazol-5-carboxylate] | > 7.52 |
| CCOC(=O)C1Cc2nc(-c3ccc(Cl)c(Cl)c3)n(-c3ccnc(N[C@@H]4CCCN(C(=O)C5CC5)C4)n3)c2C1 (stereo partly drawn) [Compound 19b, ethyl 1-(2-(((R)-1-(cyclopropanecarbonyl)piperidin-3-yl)amino)pyrimidin-4-yl)-2-(3,4-dichlorophenyl)-1,4,5,6-tetracyclopenta[d]imidazol-5-carboxylate] | > 7.52 |

same assay, conditions: Table 3

| SMILES | pIC50 |
| --- | --- |
| NC(=O)C1Cc2nc(-c3ccc4ccccc4c3)n(-c3ccnc(N[C@H]4CCN(C(=O)C5CC5)C4)n3)c2C1 (stereo partly drawn) [Compound 20c, 1-(2-(((S)-1-(cyclopropanecarbonyl)pyrrolidine-3-yl)amino)pyrimidin-4-yl)-2-(naphthalen-2-yl)-1,4,5,6-tetracyclopenta[d]imidazol-5-carboxamide] | > 7.52 |
| NC(=O)C1Cc2nc(-c3ccc4ccccc4c3)n(-c3ccnc(N[C@H]4CCCN(C(=O)C5CC5)C4)n3)c2C1 (stereo partly drawn) [Compound 22c, 1-(2-(((S)-1-(cyclopropanecarbonyl)piperidin-3-yl)amino)pyrimidin-4-yl)-2-(naphthalen-2-yl)-1,4,5,6-tetracyclopenta[d]imidazol-5-carboxamide] | > 7.52 |
| CNC(=O)C1Cc2nc(-c3ccc(F)c(-c4ccc5ccccc5c4)c3)n(-c3ccnc(N[C@@H]4CCCN(C(=O)C5CC5)C4)n3)c2C1 (stereo partly shown) [Compound 27c] | > 7.52 |
| CCOC(=O)C1Cc2nc(-c3ccc4ccccc4c3)n(-c3ccnc(N[C@H]4CCN(C(=O)C5CC5)C4)n3)c2C1 (stereo partly drawn) [Compound 16c, ethyl 1-(2-(((S)-1-(cyclopropanecarbonyl)pyrrolidine-3-yl)amino)pyrimidin-4-yl)-2-(naphthalen-2-yl)-1,4,5,6-tetracyclopenta[d]imidazol-5-carboxylate] | > 7.52 |
| NC(=O)C1Cc2nc(-c3ccc4ccccc4c3)n(-c3ccnc(N[C@@H]4CCCN(C(=O)C5CC5)C4)n3)c2C1 (stereo partly drawn) [Compound 23c, 1-(2-(((R)-1-(cyclopropanecarbonyl)piperidin-3-yl)amino)pyrimidin-4-yl)-2-(naphthalen-2-yl)-1,4,5,6-tetracyclopenta[d]imidazol-5-carboxamide] | > 7.52 |

same assay, conditions: Table 4

| SMILES | pIC50 |
| --- | --- |
| CCOC(=O)C1Cc2nc(-c3ccc4c(c3)OCO4)n(-c3ccnc(N[C@@H]4CCCN(C(=O)C5CC5)C4)n3)c2C1 (stereo partly drawn) [Compound 19d, ethyl 2-(benzo[d][1,3]dioxol-5-yl)-1-(2-(((R)-1-(cyclopropanecarbonyl)piperidin-3-yl)amino)pyrimidin-4-yl)-1,4,5,6-tetracyclopenta[d]imidazol-5-carboxylate] | > 7.52 |
| CNC(=O)C1Cc2nc(-c3ccc4c(c3)OCO4)n(-c3ccnc(NC4CCN(C(=O)C5CC5)C4)n3)c2C1 (single isomer, unassigned) [Compound 24d] | < 6.00 |

same assay, conditions: Table 5

| SMILES | pIC50 |
| --- | --- |
| NC(=O)C1Cc2nc(-c3ccc4c(c3)CCO4)n(-c3ccnc(N[C@H]4CCN(C(=O)C5CC5)C4)n3)c2C1 (stereo partly drawn) [Compound 20e, 1-(2-(((S)-1-(cyclopropanecarbonyl)pyrrolidine-3-yl)amino)pyrimidin-4-yl)-2-(2,3-dihydrobenzofuran-5-yl)-1,4,5,6-tetracyclopenta[d]imidazol-5-carboxamide] | > 7.52 |
| CNC(=O)C1Cc2nc(-c3ccc4c(c3)CCO4)n(-c3ccnc(N[C@H]4CCCN(C(=O)C5CC5)C4)n3)c2C1 (stereo partly drawn) [Compound 26e, 1-(2-(((S)-1-(cyclopropanecarbonyl)piperidin-3-yl)amino)pyrimidin-4-yl)-2-(2,3-dihydrobenzofuran-5-yl)-N-methyl-1,4,5,6-tetracyclopenta[d]imidazol-5-carboxamide] | < 6.00 |
| CCOC(=O)C1Cc2nc(-c3ccc4c(c3)CCO4)n(-c3ccnc(N[C@H]4CCN(C(=O)C5CC5)C4)n3)c2C1 (stereo partly drawn) [Compound 16e, ethyl 1-(2-(((S)-1-(cyclopropanecarbonyl)pyrrolidine-3-yl)amino)pyrimidin-4-yl)-2-(2,3-dihydrobenzofuran-5-yl)-1,4,5,6-tetracyclopenta[d]imidazol-5-carboxylate] | < 6.00 |
| CCOC(=O)C1Cc2nc(-c3ccc4c(c3)CCO4)n(-c3ccnc(N[C@H]4CCCN(C(=O)C5CC5)C4)n3)c2C1 (stereo partly drawn) [Compound 18e, ethyl 1-(2-(((S)-1-(cyclopropanecarbonyl)piperidin-3-yl)amino)pyrimidin-4-yl)-2-(2,3-dihydrobenzofuran-5-yl)-1,4,5,6-tetracyclopenta[d]imidazol-5-carboxylate] | > 7.52 |
